The values below come from patent publication US20240374590A1, “COMPOSITIONS AND METHODS FOR TREATING CANCER” (A2A PHARMACEUTICALS, INC., priority 2021, published 2024).

Experiment [1] relates to HCT-116 human colon carcinoma cell line. Put plainly: Cell viability assay (SRB) in HCT-116. To be noted: 72 hours after treatment, read-out: HCT116 IC50. The experiment is classed as cell-based. Summed up:
(§1)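 JIMT-1 (3×10^3 cells/well) and HCT-116 (4×10^3 cells/well) cells were seeded and treated with inhibitors at several concentrations 24 h later. Viability was read by sulforhodamine B staining 72 h after treatment. JIMT-1 was grown in DMEM and HCT-116 in McCoy's 5A, both with FBS.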

Experiment [2] deals with JIMT-1 human breast cancer cell line. Put plainly: Cell viability assay (SRB) in JIMT-1. It counts as cell-based. To be noted: 72 hours after treatment, read-out: JIMT1 IC50. Summed up: as §1
Another experiment concerns CT-26 xenografts. Put plainly: CT-26 mouse colon xenograft model. As to conditions: CT-26 xenograft, female Balb/c mice; 15, 25, 50 mpk QD, 5 mpk IV BIW, 5 mpk IP QD. It counts as in vivo. On the procedure:
Compound 129b was also tested in CT-26 mouse colon xenograft models. For CT-26 xenografts 5×10^5 CT-26 cells in 100 μL was injected in the right flank of six-to-eight-week-old female Balb/c mice. When the tumor volume reached mean of ˜100 mm^3, mice were randomized in a group of 5 and treatment was initiated vehicle, 15 mpk QD, 25 mpk QD, 50 mpk QD, 5 mpk IV BIW, and 5 mpk IP QD of Compound 129b.

A further experiment concerns RKO xenograft. Put plainly: RKO colon cancer xenograft tumor growth in nude mice. The experiment is classed as in vivo, mouse. To be noted: female athymic nude mice. As to the method:
Six-to-eight-week-old female athymic nude mice were housed with a temperature-controlled and 12-hour light/12-hour dark cycle environment. For in vivo colon cancer tumor growth, 1×10^6 RKO cells were prepared in 100 μL of DMEM and injected into right flank of female nude mice. Mouse weight and tumor volume were measured twice a week. Tumor volumes were calculated as length×width^2×0.5. Once the tumor volume had reached about 100 mm^3, xenografts were randomized into groups (5 mice per group). Animals were treated with vehicle and Compound 129b. The formulation for vehicle and Compound 129b was 50% PEG400 and 20% Cremophor RH40 final (50% of 40% Cremophor) in Acetate buffer, PH=4. The mouse were sacrificed after 4 weeks or if the tumors reached a predefined tumor volume cut-off of 2500 mm^3. […] For instance, at the highest does, a TGI of at least 80% was observed (FIG. 1). PGP-71

As to `COc1ccc(-c2cc(Nc3ccnc(N4C[C@@H](C)O[C@@H](C)C4)n3)[nH]n2)c(F)c1` [Compound 129b, 2-((2R,6S)-2,6-dimethylmorpholino)-N-(3-(2-fluoro-4-methoxyphenyl)-1H-pyrazol-5-yl)pyrimidin-4-amine], the results for the concentration for half-maximal inhibition (IC50) in experiment [1] and in experiment [2] were 0.034 µM and 0.003 µM, respectively. For the same compound, the “tumor growth inhibition or regression (in words)” value with CT-26 xenografts was “Strong and statistically significant tumor growth inhibition or regression”. Also, in the experiment on RKO xenograft (100 mg/kg PO QD/BID/TID), the “tumor growth inhibition (in words)” value was “strong tumor growth inhibition”. The TGI entry with RKO xenograft (highest dose (100 mg/kg PO TID, 28 days)) is given as “at least 80%”.

With `C[C@H]1COCCN1c1nccc(Nc2cc(-c3ccc(OC(F)F)cc3)n[nH]2)n1` [Compound 263, (S)-N-(3-(4-(difluoromethoxy)phenyl)-1H-pyrazol-5-yl)-2-(3-methylmorpholino)pyrimidin-4-amine], the figures for the IC50 in experiment [1] and in experiment [2] were 0.079 µM and 0.03 µM, respectively.

In the case of `C[C@@H]1COCCN1c1nccc(Nc2cc(-c3ccc(OC(F)F)cc3)n[nH]2)n1` [Compound 264, (R)-N-(3-(4-(difluoromethoxy)phenyl)-1H-pyrazol-5-yl)-2-(3-methylmorpholino)pyrimidin-4-amine], the IC50 in experiment [1] stood at 0.302 µM; in experiment [2], 0.127 µM.

For `COc1ccc(-c2cc(N(C)c3ccnc(N4C[C@@H](C)O[C@@H](C)C4)n3)[nH]n2)c(F)c1` [Compound 275, 2-((2R,6S)-2,6-dimethylmorpholino)-N-(3-(2-fluoro-4-methoxyphenyl)-1H-pyrazol-5-yl)-N-methylpyrimidin-4-amine], the concentration for half-maximal inhibition (IC50) in experiment [1] is 0.046 µM; in experiment [2], 0.013 µM.

For `C[C@@H]1CN(c2nccc(N(C)c3cc(-c4ccc(OCF)cc4)n[nH]3)n2)C[C@H](C)O1` [Compound 277, 2-((2R,6S)-2,6-dimethylmorpholino)-N-(3-(4-(fluoromethoxy)phenyl)-1H-pyrazol-5-yl)-N-methylpyrimidin-4-amine], the results for the 50% inhibitory concentration (IC50) in experiment [1] and in experiment [2] were 0.269 µM and 0.204 µM, respectively.

Take `COc1ccc(-c2cc(Nc3nc(N4C[C@@H](C)O[C@@H](C)C4)ncc3Cl)[nH]n2)c(F)c1` [Compound 281, 5-chloro-2-((2R,6S)-2,6-dimethylmorpholino)-N-(3-(2-fluoro-4-methoxyphenyl)-1H-pyrazol-5-yl)pyrimidin-4-amine]: the values for the IC50 in experiment [1] and in experiment [2] were 0.436 µM and 0.131 µM, respectively.

In the case of `COc1ccc(-c2cc(Nc3nc(N4C[C@@H](C)O[C@@H](C)C4)ncc3F)[nH]n2)c(F)c1` [Compound 282, 2-((2R,6S)-2,6-dimethylmorpholino)-5-fluoro-N-(3-(2-fluoro-4-methoxyphenyl)-1H-pyrazol-5-yl)pyrimidin-4-amine], the IC50 in experiment [1] is 0.046 µM; in experiment [2], 0.045 µM.

As for `CC1COCC(C)N1c1ncc(F)c(Nc2cc(-c3ccc(OC(F)F)cc3)n[nH]2)n1` (stereo not shown) [Compound 286, N-(3-(4-(difluoromethoxy)phenyl)-1H-pyrazol-5-yl)-2-(3,5-dimethylmorpholino)-5-fluoropyrimidin-4-amine], the concentration for half-maximal inhibition (IC50) came to 5.22 µM in experiment [1] and 1.69 µM in experiment [2].

On to `C[C@@H]1CN(c2ncc(F)c(Nc3cc(-c4ccc(OC(F)F)cc4)n[nH]3)n2)C[C@H](C)O1` [Compound 287, N-(3-(4-(difluoromethoxy)phenyl)-1H-pyrazol-5-yl)-2-((2R,6S)-2,6-dimethylmorpholino)-5-fluoropyrimidin-4-amine], for which the IC50 was 0.091 µM in experiment [1] and 0.049 µM in experiment [2].

As to `C[C@@H]1CN(c2ncc(Cl)c(Nc3cc(-c4ccc(OC(F)F)cc4)n[nH]3)n2)C[C@H](C)O1` [Compound 288, 5-chloro-N-(3-(4-(difluoromethoxy)phenyl)-1H-pyrazol-5-yl)-2-((2R,6S)-2,6-dimethylmorpholino)pyrimidin-4-amine], the half-maximal inhibitory concentration (IC50) in experiment [1] was determined as 0.456 µM; in experiment [2] it was 0.443 µM.

Turning to `Fc1cnc(N2CCC2)nc1Nc1cc(-c2ccc(OC(F)F)cc2)n[nH]1` [Compound 289, 2-(azetidin-1-yl)-N-(3-(4-(difluoromethoxy)phenyl)-1H-pyrazol-5-yl)-5-fluoropyrimidin-4-amine], the half-inhibitory concentration (IC50) is 0.371 µM in experiment [1] and 0.18 µM in experiment [2].

As for `CC1CCCN1c1ncc(F)c(Nc2cc(-c3ccc(OC(F)F)cc3)n[nH]2)n1` (stereo not shown) [Compound 290, N-(3-(4-(difluoromethoxy)phenyl)-1H-pyrazol-5-yl)-5-fluoro-2-(2-methylpyrrolidin-1-yl)pyrimidin-4-amine], the values for the IC50 in experiment [1] and in experiment [2] were 0.337 µM and 0.278 µM, respectively.

Regarding `CC1COCCN1c1ncc(F)c(Nc2cc(-c3ccc(OC(F)F)cc3)n[nH]2)n1` (stereo not shown) [Compound 291, N-(3-(4-(difluoromethoxy)phenyl)-1H-pyrazol-5-yl)-5-fluoro-2-(3-methylmorpholino)pyrimidin-4-amine], the concentration for half-maximal inhibition (IC50) in experiment [1] amounted to 1.71 µM; in experiment [2] it was 0.777 µM.

Turning to `C[C@@H]1CN(c2ncc(F)c(Nc3cc(-c4ccc(OC(F)F)cc4)n[nH]3)n2)C[C@@H](C)O1` [Compound 292, N-(3-(4-(difluoromethoxy)phenyl)-1H-pyrazol-5-yl)-2-((2R,6R)-2,6-dimethylmorpholino)-5-fluoropyrimidin-4-amine], the IC50 is 0.996 µM in experiment [1] and 0.659 µM in experiment [2].

Turning to `C[C@H]1CN(c2ncc(F)c(Nc3cc(-c4ccc(OC(F)F)cc4)n[nH]3)n2)C[C@H](C)O1` [Compound 293, N-(3-(4-(difluoromethoxy)phenyl)-1H-pyrazol-5-yl)-2-((2S,6S)-2,6-dimethylmorpholino)-5-fluoropyrimidin-4-amine], the concentration for half-maximal inhibition (IC50) in experiment [1] amounted to 0.332 µM; in experiment [2] it was 0.255 µM.

Consider `C[C@H]1COCCN1c1ncc(F)c(Nc2cc(-c3ccc(OC(F)F)cc3)n[nH]2)n1` [Compound 294, (S)-N-(3-(4-(difluoromethoxy)phenyl)-1H-pyrazol-5-yl)-5-fluoro-2-(3-methylmorpholino)pyrimidin-4-amine], for which the IC50 in experiment [1] was found to be 1.14 µM; in experiment [2] it was 0.636 µM.

Turning to `C[C@@H]1COCCN1c1ncc(F)c(Nc2cc(-c3ccc(OC(F)F)cc3)n[nH]2)n1` [Compound 295, (R)-N-(3-(4-(difluoromethoxy)phenyl)-1H-pyrazol-5-yl)-5-fluoro-2-(3-methylmorpholino)pyrimidin-4-amine], the IC50 in experiment [1] was 7.51 µM; in experiment [2], ≥ 10 µM.

On to `C[C@@H]1CN(c2ncnc(Nc3cc(-c4ccc(OC(F)F)cc4)n[nH]3)n2)C[C@H](C)O1` [Compound 310, N-(3-(4-(difluoromethoxy)phenyl)-1H-pyrazol-5-yl)-4-((2R,6S)-2,6-dimethylmorpholino)-1,3,5-triazin-2-amine], for which the IC50 came out at 2.96 µM in experiment [1] and 2.35 µM in experiment [2].

With `COc1ccc(-c2cc(Nc3ccnc(C4=CCOCC4)n3)[nH]n2)c(F)c1` [Compound 317, 2-(3,6-dihydro-2H-pyran-4-yl)-N-(3-(2-fluoro-4-methoxyphenyl)-1H-pyrazol-5-yl)pyrimidin-4-amine], the IC50 in experiment [1] was 0.024 µM; in experiment [2], 0.012 µM.

As to `COc1ccc(-c2cc(Nc3ccnc(C4CCOCC4)n3)[nH]n2)c(F)c1` [Compound 318, N-(3-(2-fluoro-4-methoxyphenyl)-1H-pyrazol-5-yl)-2-(tetrahydro-2H-pyran-4-yl)pyrimidin-4-amine], the IC50 came out at 0.293 µM in experiment [1] and 0.319 µM in experiment [2].

What is called IC50 is the concentration needed to halve the response being measured.
